Reference: the Kinase Knowledgebase extract (Sharma et al. 2016)
pEC50, pIC50: −log10 of the molar value.

Tests used:
PIK3CB (Human) [1] = biological target: PIK3CB (Human) (UniProt P42338); test: Enzyme Assay
PIK3CB (Human) [2] = biological target: PIK3CB (Human) (UniProt P42338); test: Cell-Based Assay; conditions: mda-mb-468

Sequence of PIK3CB (Human) (P42338 whole entry, looked up): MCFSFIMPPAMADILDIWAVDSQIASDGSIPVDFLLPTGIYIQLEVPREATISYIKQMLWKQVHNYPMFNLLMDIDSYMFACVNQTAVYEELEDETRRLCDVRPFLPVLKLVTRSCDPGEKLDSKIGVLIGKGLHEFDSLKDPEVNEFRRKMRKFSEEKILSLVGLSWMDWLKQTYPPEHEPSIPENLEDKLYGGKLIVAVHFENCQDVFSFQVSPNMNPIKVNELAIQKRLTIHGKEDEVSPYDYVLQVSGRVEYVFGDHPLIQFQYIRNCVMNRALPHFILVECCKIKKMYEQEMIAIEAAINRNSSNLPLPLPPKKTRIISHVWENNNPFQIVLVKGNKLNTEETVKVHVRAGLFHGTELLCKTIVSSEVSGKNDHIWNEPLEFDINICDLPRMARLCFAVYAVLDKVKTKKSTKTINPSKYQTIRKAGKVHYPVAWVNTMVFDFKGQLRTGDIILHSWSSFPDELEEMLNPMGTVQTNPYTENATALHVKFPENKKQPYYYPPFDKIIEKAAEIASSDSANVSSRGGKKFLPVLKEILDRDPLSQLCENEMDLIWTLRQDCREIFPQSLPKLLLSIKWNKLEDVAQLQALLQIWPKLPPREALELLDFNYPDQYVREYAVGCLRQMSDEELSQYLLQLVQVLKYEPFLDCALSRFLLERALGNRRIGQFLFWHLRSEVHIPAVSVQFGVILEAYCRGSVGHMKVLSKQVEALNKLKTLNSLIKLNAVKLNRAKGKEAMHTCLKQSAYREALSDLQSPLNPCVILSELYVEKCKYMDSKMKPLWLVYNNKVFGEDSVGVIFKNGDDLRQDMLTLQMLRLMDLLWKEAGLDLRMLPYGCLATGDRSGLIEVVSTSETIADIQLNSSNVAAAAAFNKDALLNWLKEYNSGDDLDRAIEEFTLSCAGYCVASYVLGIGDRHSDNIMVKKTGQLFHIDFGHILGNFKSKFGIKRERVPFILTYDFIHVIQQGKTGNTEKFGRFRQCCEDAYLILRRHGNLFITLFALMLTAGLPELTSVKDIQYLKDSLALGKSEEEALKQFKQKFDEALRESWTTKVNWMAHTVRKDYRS

SMILES | pIC50 (PIK3CB (Human) [1]) | pEC50 (PIK3CB (Human) [2])
CC1=NC(=O)C2SC(N3CCOCC3)=NC2N1Cc1cccc(C(F)(F)F)c1C (configuration not stated) | 9.20 | 
Cc1nn2c(C(=O)O)cc(N3CCOCC3)nc2c1Cc1cccc(C(F)(F)F)c1C |  | 5.50
Cc1nn2c(C(N)=O)cc(N3CCOCC3)nc2c1Cc1cccc(C(F)(F)F)c1C |  | 5.70
Cc1c(Cc2c(O)nn3c(O)cc(C4CCOCC4)nc23)cccc1C(F)(F)F | 7.20 | 
COc1nn2c(O)cc(-c3ccncc3)nc2c1Cc1cccc(Cl)c1Cl |  | 4.60
Cc1nn2c(O)cc(N3CCOCC3)nc2c1Cc1cccc2ccccc12 |  | 5.40
Cc1nn2c(NC(N)=O)cc(N3CCOCC3)nc2c1Cc1cccc(C(F)(F)F)c1C |  | 5.90
Cc1nn2c(O)cc(C3CCOCC3)nc2c1Cc1cccc(C(F)(F)F)c1C |  | 4.80
Cc1c(Cc2cnn3c(O)cc(N4CCOCC4)nc23)cccc1C(F)(F)F |  | 5.50
Nc1nn2c(O)cc(C3CCOCC3)nc2c1Cc1cccc(Cl)c1Cl |  | 5.00
Cc1nn2c(O)cc(N3CCOCC3)nc2c1Cc1cccc(C(F)(F)F)c1C |  | 5.30
Cc1c(Cc2cnn3c(O)cc(-c4ccncc4)nc23)cccc1C(F)(F)F |  | 4.80
